Results from patent publication US7030133B2, “Inhibitors of formation of advanced glycation endproducts (AGEs)” (City of Hope, priority 1999, dated 2006).

Key:
[1] = tested on: hemoglobin (HbAlC formation); assay: Hemoglobin-δ-Gluconolactone (δ-Glu) assay (early stage glycation, HbAlC formation in whole blood); format: cell-based, human; conditions: 1 millimole/L compound, 50 millimoles/L δ-Glu, whole blood from normal volunteers, 16 hours at 37° C.
Method: The δ-Glu assay is a specific method for investigation of inhibitors of the early stage of glycation. Evaluation of early glycation products (Amadori) formation on hemoglobin (HbAlC) is performed by incubating red blood cells with an oxidized form of glucose in the presence and the absence of the inhibitor compound followed by determination of HbAlC in the test versus the control (Rahbar and Nadler., 1999). […] By contrast, glucose requires weeks for an equivalent reaction to occur. We have used this finding to devise an assay method to measure early stage glycation of hemoglobin (Amadori product) and an assay to evaluate the ability of an inhibitor to inhibit HbAlC formation. Briefly, fresh blood was drawn in potassium-EDTA and prepared for incubation within 30 minutes of collection by mixing 200 μL of blood with 40 μL of either phosphate buffered-saline (PBS), pH 7.4, alone, PBS containing 50 millimoles/L δ-Glu (Sigma), or PBS containing 50 millimoles/L δ-Glu plus 1 millimole/L inhibitor. After incubation for 16 hours at 37° C., the percentage of glycated hemoglobin present was determined. The percentage of glycated Hb (HbAlC) was determined using a dedicated ion-exchange HPLC system (BIORAD DIAMAT). Blood samples were analyzed in triplicate. The % inhibition of HbAlC formation by the compound was calculated according to the following formula: ((B−C)/(B−A))×100 where A is HbAlC concentration in the baseline control tube not treated with δ-Glu, B is the HbAlC concentration in blood incubated with δ-Glu, C is the HbAlC content of the test tube treated both with δ-Glu and the inhibitor compound.
The amount of (HbAlC) formation using δ-Glu treated whole blood from normal volunteers using 1 millimole/L of the compounds was calculated. Various inhibitors (compounds LR103-LR115) show different levels of HbAlC depending on their inhibitory potencies.

BSA = assay: BSA-Glucose assay (glucose-mediated development of fluorescence of BSA); format: biochemical; conditions: BSA 50 mg/mL, 800 mM glucose, 7 days at 37° C., fluorescence 330/410 nm; compound concentration not stated
Method: This test is used to evaluate the ability of the inhibitors to inhibit glucose-mediated development of fluorescence of BSA (Ikeda et al., 1996). Triplicate samples of BSA (fraction V, essentially fatty acid free, low endotoxin) from Sigma 50 mg/mL and 800 mM glucose (144 mg/mL) in […] phosphate buffer pH 7.4 containing NaN3 0.2 g/L was incubated under aseptic conditions at 37° C. for 7 days in the presence or absence of various concentrations of the compounds. After 7 days of incubation each sample was examined for the development of specific fluorescence (excitation, 330 nm; emission, 410 nm). The % inhibition of AGE formation in the test sample versus control was calculated for each inhibitor compound. Aminoguanidine (50 mM) was used as a positive control.
This method assays for inhibitors of late glycation and AGE formation (post-Amadori).

[2] = N-Acetyl-Glycyl-Lysine Methyl Ester (G.K. peptide)-Ribose assay; format: biochemical; conditions: 24 hours at 37° C.; for Percent Inhibition in the G.K.-Ribose Assay: 1 millimole/L compound, fluorescence 330/415 nm
Method: Evaluation of the late glycation products (AGEs), and AGE-inhibition by the new inhibitor compounds was tested by incubation of G.K. peptide in ribose in the presence or the absence of the agent, followed by determination of chromophores generated in the course of glycation and AGE formation through determination of their specific fluorescence. The Nagaraj et al. (1996) method used to evaluate the ability of the compounds of the present invention to inhibit the crosslinking of N-acetylglycyl-lysine methyl ester in the presence of ribose was as follows: Stock Solutions: • 0.5 M sodium phosphate buffer pH 7.4 containing NaN3 0.2 g/L • GK peptide (Sigma) 80 mg/mL in 0.5 M sodium phosphate buffer pH 7.4 • Ribose 800 mM (120 mg/mL) in 0.5 M phosphate buffer Triplicate samples of equal volumes (0.1 mL) of the 3 stock solutions were mixed together, filtered through a 0.2 micron filter (Coming) and incubated under aseptic conditions for 24 hours at 37° C. The inhibitor compounds were added to a final concentration of 1 millimole/L. At the end of the incubation period, samples were analyzed for their specific fluorescence (excitation, 330 nm; emission, 415 nm). The % inhibition by different concentrations of inhibitor was calculated as described above. Aminoguanidine was used at 50 mM as a positive control.

[3] = Inhibition of copper-catalyzed autooxidation of ascorbic acid (copper-chelating activity); format: physicochemical; conditions: read-out: IC50, concentration that inhibited the rate of ascorbic acid oxidation by 50% (copper-chelating activity), FIGS. 3 and 4
Method: This assay was performed according to Price et al. (2001). The kinetics of oxidation of ascorbic acid (AA) at the rate of decrease in absorbance at 265 nm was measured. For studies with AGE inhibitors, the ascorbic acid was added to initiate the reaction. Aliquots were removed at 0, 15, 30, 45, and 60 minutes and transferred to autoinjector vials containing DPTA. Samples were analyzed by reverse phase HPLC, (Waters 2690 Millenium 32 Separator Module), equipped with an auto-injector using Xterra™ RP18 column (250×4.6 mm, 5 μm). Solvents and gradient were all used as described in Price et al. (2001). The concentration of each inhibitor compound that inhibited the rate of AA oxidation by 50% was calculated using Prism (Graph Pad-San Diego).

CC(=O)N[C@@H](Cc1c[nH]cn1)C(=O)Oc1cccc2cccnc12 [LR113, L-8-quinolinolyl(acetylhistidine)]
Percent Inhibition of HbAlC formation in the δ-Glu Assay [1]: 36.3%
Percent Inhibition in the BSA-Glucose Assay (BSA): 21.5%
Percent Inhibition in the G.K.-Ribose Assay [2]: 11%

CC(C)(Oc1ccc(NC(=O)c2c3c(nc4ccccc24)CCCC3)cc1)C(=O)O [LR110, 4-(1,2,3,4-tetrahydroacridine-9-carboxamidophenoxyisobutyric)acid]
Percent Inhibition of HbAlC formation in the δ-Glu Assay [1]: 38.6%
Percent Inhibition in the BSA-Glucose Assay (BSA): 28.5%
Percent Inhibition in the G.K.-Ribose Assay [2]: 11%

CC(C)(Oc1ccc(N(Cc2ccc(Cl)cc2)C(=O)Nc2cc(Cl)cc(Cl)c2)cc1)C(=O)O [LR108, 1-[(4-chlorobenzyl)-3-(3,5-dichlorophenyureido)]-4-phenoxyisobutyric acid]
Percent Inhibition of HbAlC formation in the δ-Glu Assay [1]: 2.0%
Percent Inhibition in the BSA-Glucose Assay (BSA): 31.1%
Percent Inhibition in the G.K.-Ribose Assay [2]: 19.7%

4-[(3,5-dichlorophenyureido)phenoxyisobutyrylamido]-2-hydroxybenzene-4-carboxylic acid [LR114]
Percent Inhibition of HbAlC formation in the δ-Glu Assay [1]: 45.4%
Percent Inhibition in the BSA-Glucose Assay (BSA): 22.7%
Percent Inhibition in the G.K.-Ribose Assay [2]: 7.2%

CC(C)(Oc1ccc(NC(=O)Nc2ccc(F)c(Cl)c2)cc1)C(=O)Nc1ccccc1C(=O)O [LR104, 4-(4-fluoro-3-chlorophenylurido)phenoxyisobutyrylamidophenyl-2-carboxylic acid]
Percent Inhibition of HbAlC formation in the δ-Glu Assay [1]: 47.7%
Percent Inhibition in the BSA-Glucose Assay (BSA): 18.4%
Percent Inhibition in the G.K.-Ribose Assay [2]: 0%
IC50 [3]: ~100 µM

CC(C)(Oc1ccc(N(Cc2c(F)cccc2Cl)C(=O)Nc2ccc(Cl)c(Cl)c2)cc1)C(=O)O [LR105, 1[(2-fluoro-6-chlorobenzyl)-3-(3,4-dichlorophenyureido)]-4-phenoxyisobutyric acid]
Percent Inhibition of HbAlC formation in the δ-Glu Assay [1]: 38.6%
Percent Inhibition in the BSA-Glucose Assay (BSA): 21.5%
Percent Inhibition in the G.K.-Ribose Assay [2]: 12%

CC(C)(Oc1ccc(NCc2ccc(Cl)cc2)cc1)C(=O)O [LR106, 4-(4-chlorobenzylaminophenoxyisobutyric)acid]
Percent Inhibition of HbAlC formation in the δ-Glu Assay [1]: 40.9%
Percent Inhibition in the BSA-Glucose Assay (BSA): 14.4%
Percent Inhibition in the G.K.-Ribose Assay [2]: 10.5%

4,4′-bis [(methyleneoxyethyleneamino)phenoxy]isobutyric acid [LR112]
Percent Inhibition of HbAlC formation in the δ-Glu Assay [1]: 43.2%
Percent Inhibition in the BSA-Glucose Assay (BSA): 44.7%
Percent Inhibition in the G.K.-Ribose Assay [2]: 21%

CC(C)(Oc1ccc(NC(=O)Nc2cc(Cl)cc(Cl)c2)cc1)C(=O)N[C@@H](Cc1ccccc1)C(=O)O [LR115, L, α-4-[(3,5-dichlorophenyureido)phenoxyisobutyrylamido]phenylalanine]
Percent Inhibition of HbAlC formation in the δ-Glu Assay [1]: 47.7%
Percent Inhibition in the BSA-Glucose Assay (BSA): 22.3%
Percent Inhibition in the G.K.-Ribose Assay [2]: 0%

CC(C)(Oc1ccc(N(Cc2c(F)cccc2Cl)C(=O)Nc2c(F)cccc2Cl)cc1)C(=O)O [LR109, 1-[(2-fluoro-6-chlorobenzyl)-3-(2-fluoro-6-chlorophenylureido)]-4-phenoxyisobutyric acid]
Percent Inhibition of HbAlC formation in the δ-Glu Assay [1]: 56.8%
Percent Inhibition in the BSA-Glucose Assay (BSA): 34.6%
Percent Inhibition in the G.K.-Ribose Assay [2]: 9.5%

O=C(O)COc1cccc2cccnc12 [LR111, 8-quinolinoxy acetic acid]
Percent Inhibition of HbAlC formation in the δ-Glu Assay [1]: 38.6%
Percent Inhibition in the BSA-Glucose Assay (BSA): 21.6%
Percent Inhibition in the G.K.-Ribose Assay [2]: 9.7%

N=C(N)NN [AG, aminoguanidine, reference compound]
Percent Inhibition in the G.K.-Ribose Assay (positive control) ([2]; Aminoguanidine 50 mM): 67%

CC(C)(Oc1ccc(NC(=O)Nc2ccc(NC(=O)Nc3ccc(OC(C)(C)C(=O)O)cc3)c(Cl)c2)cc1)C(=O)O [LR107, 2-chlorobenzene-1,4-bis(4-ureidophenoxyisobutyric acid)]
Percent Inhibition of HbAlC formation in the δ-Glu Assay [1]: 43.2%
Percent Inhibition in the BSA-Glucose Assay (BSA): 28.7%
Percent Inhibition in the G.K.-Ribose Assay [2]: 19.5%

CC(C)(Oc1ccc(N(Cc2ccc(Cl)cc2)C(=O)Nc2ccc(Cl)c(Cl)c2)cc1)C(=O)O [LR103, 1-[(4-chlorobenzyl)-3-(3,4-dichlorophenylureido)]-4-phenoxyisobutyric acid]
Percent Inhibition of HbAlC formation in the δ-Glu Assay [1]: 43.2%
Percent Inhibition in the BSA-Glucose Assay (BSA): 4%
Percent Inhibition in the G.K.-Ribose Assay [2]: 14%
IC50 [3]: ~75 µM
